The target in the assay is T1, SIRT1 (Homo sapiens, UniProt Q96EB6).
T1 sequence (Q96EB6 1-747): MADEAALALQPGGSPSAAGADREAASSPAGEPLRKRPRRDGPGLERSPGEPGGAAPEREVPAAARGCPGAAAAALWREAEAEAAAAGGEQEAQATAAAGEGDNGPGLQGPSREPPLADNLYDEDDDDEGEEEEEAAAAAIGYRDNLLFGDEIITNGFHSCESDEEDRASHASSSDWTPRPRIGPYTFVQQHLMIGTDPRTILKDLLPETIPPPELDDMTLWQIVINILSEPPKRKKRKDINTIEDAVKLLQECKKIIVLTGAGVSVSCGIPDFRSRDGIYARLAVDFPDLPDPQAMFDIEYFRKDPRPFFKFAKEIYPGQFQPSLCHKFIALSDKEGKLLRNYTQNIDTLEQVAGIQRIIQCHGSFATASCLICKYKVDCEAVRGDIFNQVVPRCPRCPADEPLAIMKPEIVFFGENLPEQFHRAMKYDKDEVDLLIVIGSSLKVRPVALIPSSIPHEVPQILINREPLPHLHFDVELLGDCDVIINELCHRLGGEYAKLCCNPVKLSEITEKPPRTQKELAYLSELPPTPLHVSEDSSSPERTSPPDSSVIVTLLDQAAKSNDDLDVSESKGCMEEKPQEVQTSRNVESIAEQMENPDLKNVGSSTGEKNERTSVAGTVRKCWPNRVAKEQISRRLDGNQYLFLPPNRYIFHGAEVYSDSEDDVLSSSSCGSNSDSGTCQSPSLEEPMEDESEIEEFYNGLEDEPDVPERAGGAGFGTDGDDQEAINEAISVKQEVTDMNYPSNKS
Kind of assay: Mass spectrometry based SIRT1 deacetylase activation assay (acetylated p53-derived peptide substrate). The format is biochemical. An excerpt:
A mass spectrometry based assay was used to identify modulators of SIRT1 activity. The mass spectrometry based assay utilizes a peptide having 20 amino acid residues as follows: Ac-EE-K(biotin)-GQSTSSHSK(Ac)NleSTEG-K(5TMR)-EE-NH2 (SEQ ID NO: 1) wherein K(Ac) is an acetylated lysine residue and Nle is a norleucine. The peptide is labeled with the fluorophore 5TMR (excitation 540 nm/emission 580 nm) at the C-terminus. The sequence of the peptide substrate is based on p53 with several modifications. In addition, the methionine residue naturally present in the sequence was replaced with the norleucine because the methionine may be susceptible to oxidation during synthesis and purification.
The mass spectrometry assay is conducted as follows: 0.5 μM peptide substrate and 120 μM βNAD^+ is incubated with 10 nM SIRT1 for 25 minutes at 25° C. in a reaction buffer (50 mM Tris-acetate pH 8, 137 mM NaCl, 2.7 mM KCl, 1 mM MgCl2, 5 mM DTT, 0.05% BSA). Test compounds may be added to the reaction as described above. […] After the 25 minute incubation with SIRT1, 10 μL of 10% formic acid is added to stop the reaction. Reactions are sealed and frozen for later mass spec analysis. Determination of the mass of the substrate peptide allows for precise determination of the degree of acetylation (i.e. starting material) as compared to deacetylated peptide (product).
A control for inhibition of sirtuin activity is conducted by adding 1 μL of 500 mM nicotinamide as a negative control at the start of the reaction (e.g., permits determination of maximum sirtuin inhibition). A control for activation of sirtuin activity is conducted using 10 nM of sirtuin protein, with 1 μL of DMSO in place of compound, to determine the amount of deacetylation of the substrate at a given timepoint within the linear range of the assay. This timepoint is the same as that used for test compounds and, within the linear range, the endpoint represents a change in velocity.
For the above assay, SIRT1 protein was expressed and purified as follows. […] The protein was expressed by induction with 1 mM IPTG as an N-terminal His-tag fusion protein at 18° C. overnight and harvested at 30,000×g. Cells were lysed with lysozyme in lysis buffer (50 mM Tris-HCl, 2 mM Tris[2-carboxyethyl]phosphine (TCEP), 10 μM ZnCl2, 200 mM NaCl) and further treated with sonication for 10 min for complete lysis. The protein was purified over a Ni-NTA column (Amersham) and fractions containing pure protein were pooled, concentrated and run over a sizing column (Sephadex S200 26/60 global). The peak containing soluble protein was collected and run on an Ion-exchange column (MonoQ). Gradient elution (200 mM-500 mM NaCl) yielded pure protein. This protein was concentrated and dialyzed against dialysis buffer (20 mM Tris-HCl, 2 mM TCEP) overnight. The protein was aliquoted and frozen at −80° C. until further use.
Sirtuin modulating compounds that activated SIRT1 were identified using the assay described above and are shown below in Table 1. The EC1.5 values for the activating compounds are represented by A (EC1.5<1.0 uM), B (EC1.5 1-25 uM), C (EC1.5 >25 uM). The percent maximum fold activation is represented by A (Fold activation >200%) or B (Fold Activation <200%).
On to `O=C(Nc1nccs1)c1cccc2[nH]c(-c3ccccc3)nc12` [Compound 200], for which the EC1.5 entry is listed as “B (EC1.5 1-25 uM)” and the “Fold Act. (percent maximum fold activation)” value was “A (Fold activation >200%)”.

For the compound `O=C(Nc1cnccn1)c1cccc2[nH]c(-c3ccccc3)nc12` [Compound 201], the EC1.5 result was “B (EC1.5 1-25 uM)” and the “Fold Act. (percent maximum fold activation)” value is “A (Fold activation >200%)”.

As for `O=C(Nc1nccs1)c1cccc2[nH]c(-c3cccc(C(F)(F)F)c3)nc12` [Compound 202], the EC1.5 entry is listed as “A (EC1.5<1.0 uM)” and the “Fold Act. (percent maximum fold activation)” value was “A (Fold activation >200%)”.

Regarding `O=C(Nc1cnccn1)c1cccc2[nH]c(-c3cccc(C(F)(F)F)c3)nc12` [Compound 203], the EC1.5 result was “A (EC1.5<1.0 uM)” and the “Fold Act. (percent maximum fold activation)” value was “A (Fold activation >200%)”.

On to `O=C(Nc1nccs1)c1cccc2[nH]c(-c3cccc(OC(F)(F)F)c3)nc12` [Compound 204], for which the EC1.5 result was “A (EC1.5<1.0 uM)” and the “Fold Act. (percent maximum fold activation)” value is listed as “A (Fold activation >200%)”.

Consider `O=C(Nc1cnccn1)c1cccc2[nH]c(-c3cccc(OC(F)(F)F)c3)nc12` [Compound 205], for which the EC1.5 result is “A (EC1.5<1.0 uM)” and the “Fold Act. (percent maximum fold activation)” value is recorded as “A (Fold activation >200%)”.

For `Cc1csc(NC(=O)c2cccc3[nH]c(-c4cccc(C(F)(F)F)c4)nc23)n1` [Compound 206], the EC1.5 entry is listed as “B (EC1.5 1-25 uM)” and the “Fold Act. (percent maximum fold activation)” value is reported as “A (Fold activation >200%)”.

As for `O=C(Nc1cc[nH]n1)c1cccc2[nH]c(-c3cccc(C(F)(F)F)c3)nc12` [Compound 207], the EC1.5 entry was “B (EC1.5 1-25 uM)” and the “Fold Act. (percent maximum fold activation)” value is given as “A (Fold activation >200%)”.

As for `O=C(Nc1nccs1)c1cccc2[nH]c(-c3ccccc3C(F)(F)F)nc12` [Compound 208, N-(thiazol-2-yl)-2-(2-(trifluoromethyl)phenyl)-1H-benzo[d]imidazole-4-carboxamide], the EC1.5 result is recorded as “A (EC1.5<1.0 uM)” and the “Fold Act. (percent maximum fold activation)” value is “A (Fold activation >200%)”.

Consider `O=C(Nc1nccs1)c1cccc2[nH]c(-c3ccc(C(F)(F)F)cc3)nc12` [Compound 209], for which the EC1.5 entry is reported as “C (EC1.5 >25 uM)” and the “Fold Act. (percent maximum fold activation)” value is “B (Fold Activation <200%)”.

On to `O=C(Nc1nccs1)c1cccc2[nH]c(-c3cc(F)cc(C(F)(F)F)c3)nc12` [Compound 210], for which the EC1.5 result was “B (EC1.5 1-25 uM)” and the “Fold Act. (percent maximum fold activation)” value is “B (Fold Activation <200%)”.

`N#Cc1cccc(-c2nc3c(C(=O)Nc4nccs4)cccc3[nH]2)c1` [Compound 211]: the EC1.5 entry is recorded as “B (EC1.5 1-25 uM)” and the “Fold Act. (percent maximum fold activation)” value is listed as “A (Fold activation >200%)”.

Regarding `O=C(Nc1nccs1)c1cccc2[nH]c(-c3cccc(F)c3)nc12` [Compound 212], the EC1.5 entry was “B (EC1.5 1-25 uM)” and the “Fold Act. (percent maximum fold activation)” value is on record as “A (Fold activation >200%)”.

For the compound `O=C(Nc1nccs1)c1cccc2[nH]c(-c3cc(F)cc(F)c3)nc12` [Compound 213], the EC1.5 entry was “B (EC1.5 1-25 uM)” and the “Fold Act. (percent maximum fold activation)” value is recorded as “A (Fold activation >200%)”.

On to `O=C(Nc1nccs1)c1cccc2[nH]c(-c3ccc(F)c(F)c3)nc12` [Compound 214], for which the EC1.5 result is on record as “C (EC1.5 >25 uM)” and the “Fold Act. (percent maximum fold activation)” value is “B (Fold Activation <200%)”.

For the compound `O=C(Nc1nccs1)c1cccc2[nH]c(-c3ccccn3)nc12` [Compound 215], the EC1.5 entry was “B (EC1.5 1-25 uM)” and the “Fold Act. (percent maximum fold activation)” value is “A (Fold activation >200%)”.

On to `O=C(Nc1nccs1)c1cccc2[nH]c(-c3ccc(F)c(C(F)(F)F)c3)nc12` [Compound 216], for which the EC1.5 entry is recorded as “C (EC1.5 >25 uM)” and the “Fold Act. (percent maximum fold activation)” value is given as “B (Fold Activation <200%)”.

Take `O=C(Nc1nccs1)c1cccc2[nH]c(-c3cccc(C(F)(F)F)c3F)nc12` [Compound 217]: the EC1.5 result is on record as “C (EC1.5 >25 uM)” and the “Fold Act. (percent maximum fold activation)” value was “B (Fold Activation <200%)”.

With `O=C(Nc1nccs1)c1cccc2[nH]c(-c3cc(C(F)(F)F)ccc3F)nc12` [Compound 218], the EC1.5 result is listed as “B (EC1.5 1-25 uM)” and the “Fold Act. (percent maximum fold activation)” value is “A (Fold activation >200%)”.

With `O=C(Nc1nccs1)c1cccc2[nH]c(-c3cccc(Cl)c3)nc12` [Compound 219], the EC1.5 entry is “B (EC1.5 1-25 uM)” and the “Fold Act. (percent maximum fold activation)” value is reported as “A (Fold activation >200%)”.

In the case of `O=C(Nc1nccs1)c1cccc2[nH]c(-c3cc(F)cc(Cl)c3)nc12` [Compound 220], the EC1.5 result was “B (EC1.5 1-25 uM)” and the “Fold Act. (percent maximum fold activation)” value was “A (Fold activation >200%)”.

As for `O=C(Nc1nccs1)c1cccc2[nH]c(-c3ccc4c(c3)OC(F)(F)O4)nc12` [Compound 221], the EC1.5 entry is “C (EC1.5 >25 uM)” and the “Fold Act. (percent maximum fold activation)” value was “B (Fold Activation <200%)”.

On to `O=C(Nc1nccs1)c1cccc2[nH]c(-c3cccc(-c4ccccc4)c3)nc12` [Compound 222], for which the EC1.5 entry was “C (EC1.5 >25 uM)” and the “Fold Act. (percent maximum fold activation)” value is on record as “B (Fold Activation <200%)”.

For `O=C(Nc1nccs1)c1cccc2[nH]c(-c3ccc(-c4ccccc4)cc3)nc12` [Compound 223], the EC1.5 result was “C (EC1.5 >25 uM)” and the “Fold Act. (percent maximum fold activation)” value is on record as “B (Fold Activation <200%)”.

On to `O=C(Nc1nccs1)c1cccc2[nH]c(-c3cccc(Oc4ccccc4)c3)nc12` [Compound 224], for which the EC1.5 result is given as “B (EC1.5 1-25 uM)” and the “Fold Act. (percent maximum fold activation)” value was “A (Fold activation >200%)”.

Turning to `O=C(Nc1nccs1)c1cccc2[nH]c(-c3cccc(N4CCCCC4)c3)nc12` [Compound 225], the EC1.5 result is recorded as “B (EC1.5 1-25 uM)” and the “Fold Act. (percent maximum fold activation)” value was “A (Fold activation >200%)”.

In the case of `O=C(Nc1nccs1)c1cccc2[nH]c(-c3cccc(N4CCOCC4)c3)nc12` [Compound 226], the EC1.5 result was “A (EC1.5<1.0 uM)” and the “Fold Act. (percent maximum fold activation)” value was “A (Fold activation >200%)”.

For `O=C(Nc1nccs1)c1cccc2[nH]c(-c3cccnc3)nc12` [Compound 227], the EC1.5 result is “B (EC1.5 1-25 uM)” and the “Fold Act. (percent maximum fold activation)” value was “A (Fold activation >200%)”.

As for `O=C(Nc1nccs1)c1cccc2[nH]c(-c3ccc4ccccc4c3)nc12` [Compound 228], the EC1.5 entry is listed as “B (EC1.5 1-25 uM)” and the “Fold Act. (percent maximum fold activation)” value is listed as “A (Fold activation >200%)”.

Consider `O=C(Nc1nccs1)c1cccc2[nH]c(-c3ccoc3)nc12` [Compound 229], for which the EC1.5 entry is “B (EC1.5 1-25 uM)” and the “Fold Act. (percent maximum fold activation)” value is given as “A (Fold activation >200%)”.

As to `Cc1cc(-c2nc3c(C(=O)Nc4nccs4)cccc3[nH]2)no1` [Compound 230], the EC1.5 entry is given as “A (EC1.5<1.0 uM)” and the “Fold Act. (percent maximum fold activation)” value is listed as “B (Fold Activation <200%)”.
